# From PMC2410169, “N-hexanoyl-sphingomyelin potentiates in vitro doxorubicin cytotoxicity by enhancing its cellular influx” (British Journal of Cancer, 2004)
# Read-outs that look alike come from different tables or passages of the source.
# Key:
# [1] = test system: BAEC; assay type: cell-based, bovine; conditions: for Effect on doxorubicin uptake (in words): assay as for C6-SM, Table 1
# Protocol: (§1) For intracellular doxorubicin measurements, cells were cultured in flat-bottom 96-well plates. At confluence, cells were changed to a serum-free medium and exposed to 50 μM doxorubicin during 60 min (unless indicated otherwise). After washing with ice-cold PBS, cells were lysed in 1% (w v^−1) Triton X-100 in water. Native fluorescence intensities were then measured by a Perkin-Elmer Victor Wallac II fluorescence microplate reader, using λex 485 nm and λem 535 nm filters. Additional probes and drugs that were tested for cellular uptake during 60 min incubations, either in the absence or presence of lipid, were hydrazide-AF488 (35 μM, λex 485 nm, λem 535 nm), sulphorodamine-101 (400 μM, λex 355 nm, λem 620 nm), propidium iodide (300 μM, λex 355 nm, λem 535 nm), o-phtaldialdehyde (1 mM, λex 485 nm, λem 535 nm), topotecan (30 μM, λex 355 nm, λem 535 nm), epirubicin (50 μM, λex 485 nm, λem 535 nm), bisbenzimidine (10 μM, λex 355 nm, λem 460 nm), camptothecin (30 μM, λex 355 nm, λem 460 nm), daunorubicin (25 μM, λex 485 nm, λem 535 nm) and idarubicin (20 μM, λex 485 nm, λem 535 nm).
# [2] = test system: kidney fibroblasts from Mrp1/Mdr1a/Mdr1b triple knockout mice; test: Cellular doxorubicin accumulation in ABC-transporter knockout fibroblasts; assay type: cell-based; conditions: Table 2, no C6-SM, relative to control fibroblasts
# Protocol: The following cell types were cultured in Dulbecco's modified Eagle's medium (DMEM) containing 10% (v v^−1) foetal calf serum: primary bovine aortic endothelial cells (BAEC; passage 14–19), kindly provided by Dr A Haimovitz-Friedman (Memorial Sloan-Kettering Cancer Center, New York City NY, USA); MCF-7, KB and A431 carcinoma cells, purchased from the American Type Culture Collection (Manassas VA, USA); SV40 large-T antigen-immortalised kidney fibroblasts from Mrp1/Mdr1a/Mdr1b triple knockout mice and control renal fibroblasts ([Wijnholds et al, 2000]; kindly provided by Dr AH Schinkel, The Netherlands Cancer Institute, Amsterdam). […] All culture media were supplemented with 100 U ml^−1 penicillin, 100 μg ml^−1 streptomycin and 4 mM L-glutamine. For intracellular doxorubicin measurements, cells were cultured in flat-bottom 96-well plates. […] After washing with ice-cold PBS, cells were lysed in 1% (w v^−1) Triton X-100 in water. Native fluorescence intensities were then measured by a Perkin-Elmer Victor Wallac II fluorescence microplate reader, using λex 485 nm and λem 535 nm filters.
# [3] = test system: A431 cells; test: Cell viability, MTT assay; assay type: cell-based, human; conditions: Homo sapiens, 60 min exposure, 48 h further culture, read-out: Doxorubicin EC50
# Protocol: After centrifugation (3000 rpm, 10 min) supernatants were removed.
# [4] = test system: BAEC; test: cells; conditions: Bos taurus
# Protocol: For viability assessment, cells were cultured in flat-bottom 96-well plates. After experimental treatments, 100 μg of the mitochondrial dehydrogenase substrate MTT was added to each well ([Carmichael et al, 1987]). Cells were then incubated for 60 min at 37°C. After centrifugation (3000 rpm, 10 min) supernatants were removed. The precipitated blue formazan products were then dissolved in 100 μl DMSO and absorbencies were read in a Bio-Tek Instruments EL 340 photospectrometric microplate reader at 540 nm. Background absorbencies were subtracted and values from untreated control cells were set at 100% viability.
# After washing away remaining extracellular drug and lipid, cells were cultured for another 48 h. Viability was then assessed by the MTT assay, which relies on the fact that only mitochondria of viable cells have the capacity to convert the MTT substrate ([Carmichael et al, 1987]).
# [5] = test system: BAEC; test: Cellular uptake of fluorescent drugs and probes with or without C6-SM; assay type: cell-based, bovine; conditions: 10 μM C6-SM, 60 min
# Protocol: as §1
# [6] = Lipophilicity: 1-octanol/water partitioning; assay type: physicochemical; conditions: 1-octanol/water partition ratio
# Protocol: Partitioning of 10–50 μM drug or probe was monitored in a two-phase system consisting of 1 ml 1-octanol and 1 ml water. After addition of the compound, tubes were vortexed and centrifuged (3000 rpm, 5 min, 20°C). Aliquots of both the organic and the aqueous phases were taken for fluorimetric quantification, as described under Cellular drug accumulation. As a measure of lipophilicity, the 1-octanol/water partitioning ratio was calculated for each compound and expressed on a log scale ([Washington et al, 2001]).
# [7] = 10 μM lipid analogue with 50 μM doxorubicin, 60 min, control = no lipid, no ethanol, n=3
Molecule,"Doxorubicin (% of control±s.d.) [1, 7]",Effect on doxorubicin uptake (in words) [1],Sensitivity towards C6-SM uptake enhancement [5],other results
CCCCCCCCCC(=O)NC(CN1CCOCC1)C(O)c1ccccc1 (racemic) [PPMP],,,,"Doxorubicin (% of control±s.d.) ([1]; Table 4, PPMP 30 μM, 96 h pretreatment, no C6-SM): 166.5±22.5 % of control"
"CCCCCCCCCCCCC/C=C/C(O)C(COP(=O)([O-])OCC[N+](C)(C)C)NC(C)=O (stereo not shown) [C2-sphingomyelin, N-acetyl-sphingomyelin]",129.6±19.6 % of control,moderate effect,,
CCCCCCCCCCCCC/C=C/[C@@H](O)[C@H](CO)NC(=O)CCCCC [C6-ceramide],105.6±6.5 % of control,little or no effect,,
"CCCCCC(=O)OCC(COP(=O)([O-])OCC[N+](C)(C)C)OC(=O)CCCCC (stereo not shown) [C6-phosphatidylcholine, dihexanoyl-phosphatidylcholine]",101.0±28.2 % of control,completely without effect,,
"CCCCCCCCCCCCC/C=C/[C@@H](O)[C@H](COP(=O)(O)O)NC(=O)CCCCCCC [C8-ceramide 1-phosphate, C8-ceramide-1-phosphate]",116.5±20.6 % of control,little or no effect,,
"COc1cccc2c1C(=O)c1c(O)c3c(c(O)c1C2=O)C[C@@](O)(C(=O)CO)C[C@@H]3O[C@H]1C[C@H](N)[C@H](O)[C@H](C)O1 [Doxorubicin, doxorubicin]",,,,"Doxorubicin (% of control±s.d.) ([1]; Table 2, ATP depletion (2-deoxy-D-glucose + sodium azide, 90 min), no C6-SM): 108.2±46.7 % of control; Doxorubicin (% of control±s.d.) [2]: 101.7±14.3 % of control; EC50 ([3]; A-431, A431, with C6-SM): 130 nM; EC50 ([3]; A-431, A431, without C6-SM): 1800 nM; EC50 ([4]; read-out: Doxorubicin EC50 for BAEC toxicity, absence of C6-SM, 60 min exposure, 48 h further culture): 4000 nM; EC50 ([4]; read-out: Doxorubicin EC50 for BAEC toxicity, with 10 μM C6-SM, 60 min exposure, 48 h further culture): 600 nM"
CN(C)C(=O)CCSC(SCCC(=O)O)c1cccc(/C=C/c2ccc3ccc(Cl)cc3n2)c1 (stereo not shown) [MK571],,,,"Doxorubicin (% of control±s.d.) ([1]; Table 2, MK571 12.5 μM, no C6-SM): 103.5±30.2 % of control"
C/C=C/C[C@@H](C)C(=O)[C@H]1C(=O)N[C@@H](C(C)C)C(=O)N(C)CC(=O)N(C)[C@@H](CC(C)C)C(=O)N[C@@H](C(C)C)C(=O)N(C)[C@@H](CC(C)C)C(=O)N[C@@H](C)C(=O)N[C@H](C)C(=O)N(C)[C@@H](CC(C)C)C(=O)N(C)[C@@H](CC(C)C)C(=O)N(C)[C@@H](C(C)C)C(=O)N1C [PSC833],,,,"Doxorubicin (% of control±s.d.) ([1]; Table 2, PSC833 5 μM, no C6-SM): 76.0±15.6 % of control"
"CCCCCCCCCCCCC/C=C/[C@@H](O)[C@@H](N)COP(=O)([O-])OCC[N+](C)(C)C [Sphingosinephosphorylcholine, sphingosylphosphorylcholine]",143.2±10.0 % of control,moderate effect,,
CC[C@@]1(O)C(=O)OCc2c1cc1n(c2=O)Cc2cc3ccccc3nc2-1 [camptothecin],,,mostly insensitive to C6-SM,
COc1cccc2c1C(=O)c1c(O)c3c(c(O)c1C2=O)C[C@@](O)(C(C)=O)C[C@@H]3O[C@H]1C[C@H](N)[C@H](O)[C@H](C)O1 [daunorubicin],,,mostly insensitive to C6-SM,Lipophilicity compared with doxorubicin [6]: significantly higher
COc1cccc2c1C(=O)c1c(O)c3c(c(O)c1C2=O)C[C@@](O)(C(=O)CO)C[C@@H]3O[C@H]1C[C@H](N)[C@@H](O)[C@H](C)O1 [epirubicin],,,C6-SM sensitive,
CC(=O)[C@]1(O)Cc2c(O)c3c(c(O)c2[C@@H](O[C@H]2C[C@H](N)[C@H](O)[C@H](C)O2)C1)C(=O)c1ccccc1C3=O [idarubicin],,,mostly insensitive to C6-SM,Lipophilicity compared with doxorubicin [6]: significantly higher
CC[C@@]1(O)C(=O)OCc2c1cc1n(c2=O)Cc2cc3c(CN(C)C)c(O)ccc3nc2-1 [topotecan],,,C6-SM sensitive,
methyl-β-cyclodextrin [CDX],,,,"Doxorubicin (% of control±s.d.) ([1]; Table 4, CDX 10 mM, 30 min pretreatment, no C6-SM): 113.0±28.1 % of control"
sphingomyelin [Endogenous SM],,does not work,,
